According to US20210196654A1, “METHOD OF TREATING CONDITIONS” (Clexio Biosciences Ltd., priority 2019, published 2021):
Where two headings read alike, the source gives them in different places.

Legend:
[1] = system: human peripheral blood lymphocytes (HPBL); settings: for structural or numerical (polyploid or endoreduplicated cells) aberrations: non-activated 4 and 20-hour exposure, 60, 120, 238 μg/mL
Description: The clastogenic potential of esketamine was evaluated in the in vitro mammalian chromosome aberration test using human peripheral blood lymphocytes (HPBL) in both the absence and presence of an induced metabolic activation system (the 9000 g supernatant [S9] microsomal fraction of liver homogenate from rats exposed to Aroclor-1254).
The study was conducted in 2 phases, with a preliminary toxicity test used to determine the appropriate concentrations for the definitive chromosomal aberration assay. Water was used as a negative (vehicle) control. Toxicity (defined as >45% reduction in MI relative to the vehicle control) was evaluated at 9 concentrations, ranging from 0.0238 to 238 μg/ml, after exposure of HPBL to esketamine for 20 hours in the absence of S9 activation, or for 4 hours, either in the presence or absence of S9 activation, followed by a 16-hour recovery period.
The definitive chromosome aberration assay evaluated HPBL cells after exposure to esketamine for 20 hours in the absence of S9 activation, or for 4 hours, either in the presence of absence of S9 activation, followed by a 16-hour recovery. Positive controls for chromosomal aberrations in non-activated and S9-activated evaluations, respectively, consisted of mitomycin C (MMC, 0.6 and 0.3 μg/mL for the 4- and 20-hour exposures, respectively) and cyclophosphamide (CP, 2.5, 5, and 7.5 μg/mL). […] Initially, the doses selected for evaluation of chromosomal aberrations were 60, 120, and 238 μg/mL for the non-activated 4- and 20-hour treatment conditions; and 30, 60, and 200 μg/mL for the S9-activated 4-hour treatment condition.

[2] = Repeated dose 28 day toxicokinetics; settings: for AUC(0-inf) / AUC(0-t) / Cmax / half-life / Tmax: Sprague Dawley, rat, in vivo, po; for AUC(0-t): AUC0-t
Description: The objective of the study was to assess the potential toxicity, neurobehavioral effects, and toxicokinetics (TK) of esketamine when administered orally, via gavage, to Sprague Dawley rats for 28 days and to evaluate recovery during a 14-day drug-free period. Fifty male and 50 female rats were randomized into 4 groups (15/sex/Groups 1 and 4; 10/sex/Groups 2 and 3). Esketamine was administered via oral gavage once daily for 28 consecutive days to males at 0 (vehicle control), 6, 10 or 30 mg/kg/day and females at 0 (vehicle control), 2, 10 or 20 mg/kg/day in a dose volume of 10 mL/kg. Animals were observed until euthanized and necropsied on Day 29 (10/sex/group) or 43 (5/sex from Groups 1 and 4). Toxicity was evaluated based on mortality, clinical observations, body weights, food consumption, ophthalmology, motor activity, functional observational battery, clinical pathology (clinical chemistry, hematology, coagulation and urinalysis), organ weights, anatomic (macroscopic or microscopic) pathology. Toxicokinetic animals (3/sex/Group 1; 6/sex/Groups 2, 3, and 4) were similarly dosed and bled on Day 1 and during Week 4 for toxicokinetic analysis.

[3] = female, 2 mg/kg, Day 1, female rats, 2 mg/kg oral
[4] = female, 2 mg/kg, Day 28, female rats, 2 mg/kg oral
[5] = female, 10 mg/kg, Day 1, female rats, 10 mg/kg oral
[6] = female, 10 mg/kg, Day 28, female rats, 10 mg/kg oral
[7] = female, 20 mg/kg, Day 1, female rats, 20 mg/kg oral
[8] = female, 20 mg/kg, Day 28, female rats, 20 mg/kg oral
[9] = male, 6 mg/kg, Day 1, male rats, 6 mg/kg oral
[10] = male, 6 mg/kg, Day 28, male rats, 6 mg/kg oral
[11] = male, 10 mg/kg, Day 1, male rats, 10 mg/kg oral
[12] = male, 10 mg/kg, Day 28, male rats, 10 mg/kg oral
[13] = male, 30 mg/kg, Day 1, male rats, 30 mg/kg oral
[14] = male, 30 mg/kg, Day 28, male rats, 30 mg/kg oral

## CN[C@]1(c2ccccc2Cl)CCCCC1=O [esketamine, (2S)-2-(2-Chlorophenyl)-2-(methylamino) cyclohexanone]
[1]
  Cochran-Armitage test, structural aberrations: positive for a dose response
  Toxicity (>45% reduction in MI relative to vehicle control), preliminary toxicity test: not observed at any dose
  induction of structural chromosomal aberrations: positive
  structural or numerical (polyploid or endoreduplicated cells) aberrations: no significant or dose-dependent increases
[1]; human
  doses at which cytotoxicity was observed: > 200 µg/mL
[1]; non-activated 4- and 20-hour treatment
  cytotoxicity (>45% reduction in mitotic index), chromosomal aberration assay: not observed at any esketamine dose
[1]; listed as Esketamine
  structural or numerical (polyploid or endoreduplicated cells) aberrations: negative
[2]; Day 1, female rats, 2 mg/kg oral
  Dose normalized AUC0-inf: 29.0 (ng*h/ml)/(mg/kg)
[2]; Day 1, female rats, 10 mg/kg oral
  Dose normalized AUC0-inf: 44.0 (ng*h/ml)/(mg/kg)
[2]; Day 1, female rats, 20 mg/kg oral
  Dose normalized AUC0-inf: 49.8 (ng*h/ml)/(mg/kg)
[2]; Day 1, male rats, 6 mg/kg oral
  Dose normalized AUC0-inf: 17.2 (ng*h/ml)/(mg/kg)
[2]; Day 1, male rats, 10 mg/kg oral
  Dose normalized AUC0-inf: 18.1 (ng*h/ml)/(mg/kg)
[2]; Day 1, male rats, 30 mg/kg oral
  Dose normalized AUC0-inf: 19.5 (ng*h/ml)/(mg/kg)
[2]; Day 28, female rats, 2 mg/kg oral
  Dose normalized AUC0-t: 31.0 (ng*h/ml)/(mg/kg)
[2]; Day 28, female rats, 10 mg/kg oral
  Dose normalized AUC0-t: 51.3 (ng*h/ml)/(mg/kg)
[2]; Day 28, female rats, 20 mg/kg oral
  Dose normalized AUC0-t: 53.2 (ng*h/ml)/(mg/kg)
[2]; Day 28, male rats, 6 mg/kg oral
  Dose normalized AUC0-t: 10.2 (ng*h/ml)/(mg/kg)
[2]; Day 28, male rats, 10 mg/kg oral
  Dose normalized AUC0-t: 17.9 (ng*h/ml)/(mg/kg)
[2]; Day 28, male rats, 30 mg/kg oral
  Dose normalized AUC0-t: 19.2 (ng*h/ml)/(mg/kg)
[2]; after normalization for dose level differences
  sex difference in exposure: males had lower exposures than females
[2]; female, 2 mg/kg
  AUC(0-inf): 58 ng·h/mL
[2]; [3]
  AUC(0-t): 57 ng·h/mL
  Cmax: 67.2 ng/mL
  Tmax: 10.2 min
[2]; [4]
  AUC(0-t): 62 ng·h/mL
  Cmax: 133 ng/mL
  Tmax: 10.2 min
[2]; female, 2 mg/kg, t1/2, Day 1, female rats, 2 mg/kg oral
  half-life: 30 min
[2]; female, 10 mg/kg
  AUC(0-inf): 440 ng·h/mL
[2]; [5]
  AUC(0-t): 418 ng·h/mL
  Cmax: 295 ng/mL
  Tmax: 10.2 min
[2]; [6]
  AUC(0-t): 514 ng·h/mL
  Cmax: 768 ng/mL
  Tmax: 10.2 min
[2]; female, 10 mg/kg, t1/2, Day 1, female rats, 10 mg/kg oral
  half-life: 42 min
[2]; female, 10 mg/kg, t1/2, Day 28, female rats, 10 mg/kg oral
  half-life: 24 min
[2]; female, 20 mg/kg
  AUC(0-inf): 995 ng·h/mL
[2]; [7]
  AUC(0-t): 993 ng·h/mL
  Cmax: 672 ng/mL
  Tmax: 10.2 min
[2]; [8]
  AUC(0-t): 1060 ng·h/mL
  Cmax: 1450 ng/mL
  Tmax: 10.2 min
[2]; female, 20 mg/kg, t1/2, Day 1, female rats, 20 mg/kg oral
  half-life: 54 min
[2]; female, 20 mg/kg, t1/2, Day 28, female rats, 20 mg/kg oral
  half-life: 36 min
[2]; females
  Cmax Day 28 vs Day 1: higher on Day 28
[2]; females, 2 to 20 mg/kg/day
  exposure increase with dose: slightly greater than dose-proportional
[2]; male, 6 mg/kg
  AUC(0-inf): 103 ng·h/mL
[2]; [9]
  AUC(0-t): 99 ng·h/mL
  Cmax: 109 ng/mL
  Tmax: 10.2 min
[2]; [10]
  AUC(0-t): 61 ng·h/mL
  Cmax: 113 ng/mL
  Tmax: 10.2 min
[2]; male, 6 mg/kg, t1/2, Day 1, male rats, 6 mg/kg oral
  half-life: 48 min
[2]; male, 6 mg/kg, t1/2, Day 28, male rats, 6 mg/kg oral
  half-life: 36 min
[2]; male, 10 mg/kg
  AUC(0-inf): 181 ng·h/mL
[2]; [11]
  AUC(0-t): 175 ng·h/mL
  Cmax: 179 ng/mL
  Tmax: 10.2 min
[2]; [12]
  AUC(0-t): 179 ng·h/mL
  Cmax: 211 ng/mL
  Tmax: 10.2 min
[2]; male, 10 mg/kg, t1/2, Day 1, male rats, 10 mg/kg oral
  half-life: 42 min
[2]; male, 10 mg/kg, t1/2, Day 28, male rats, 10 mg/kg oral
  half-life: 36 min
[2]; male, 30 mg/kg
  AUC(0-inf): 585 ng·h/mL
[2]; [13]
  AUC(0-t): 580 ng·h/mL
  Cmax: 296 ng/mL
  Tmax: 10.2 min
[2]; [14]
  AUC(0-t): 575 ng·h/mL
  Cmax: 398 ng/mL
  Tmax: 30 min
[2]; male, 30 mg/kg, t1/2, Day 1, male rats, 30 mg/kg oral
  half-life: 72 min
[2]; male, 30 mg/kg, t1/2, Day 28, male rats, 30 mg/kg oral
  half-life: 90 min
[2]; males, 6 to 30 mg/kg/day
  exposure increase with dose: generally dose-proportional
